One assay concerns the target human V2 receptor (Homo sapiens, UniProt P30518). The assay can be described thus: Vasopressin 2 (V2) receptor binding. The following applies: membranes of CHO cells expressing human V2 receptor; competition vs 0.5 nM 3H-vasopressin; 2 hours at 22° C.; pH 7.4.
Assay [1] concerns the target Vasopressin 1 (V1) receptor (Homo sapiens, UniProt P37288). Kind of assay: Vasopressin 1 (V1) receptor binding. As to conditions: platelet membranes from normal subjects; competition vs 1.5 nM 3H-vasopressin; 15 minutes at 30° C.; pH 7.4.

Counter-ions that a name gives are not always drawn.

Our source for the IC50 values is patent US6316482A, “Benzamide derivatives having a vasopressin antagonistic activity” (Fujisawa Pharmaceutical Co., Ltd., priority 1996, dated 2001).

Chain of Vasopressin 1 (V1) receptor (P37288 whole entry): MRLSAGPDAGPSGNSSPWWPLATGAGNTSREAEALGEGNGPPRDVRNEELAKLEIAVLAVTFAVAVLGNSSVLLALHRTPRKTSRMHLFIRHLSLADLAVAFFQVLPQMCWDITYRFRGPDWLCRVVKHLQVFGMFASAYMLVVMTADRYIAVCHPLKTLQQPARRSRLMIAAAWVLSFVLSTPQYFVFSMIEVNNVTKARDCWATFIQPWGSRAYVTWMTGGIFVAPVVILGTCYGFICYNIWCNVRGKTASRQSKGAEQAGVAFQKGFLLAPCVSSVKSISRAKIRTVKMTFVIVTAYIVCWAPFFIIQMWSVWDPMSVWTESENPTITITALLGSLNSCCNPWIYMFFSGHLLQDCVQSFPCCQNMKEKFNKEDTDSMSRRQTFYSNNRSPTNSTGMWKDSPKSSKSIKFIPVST
Chain of human V2 receptor (P30518 whole entry): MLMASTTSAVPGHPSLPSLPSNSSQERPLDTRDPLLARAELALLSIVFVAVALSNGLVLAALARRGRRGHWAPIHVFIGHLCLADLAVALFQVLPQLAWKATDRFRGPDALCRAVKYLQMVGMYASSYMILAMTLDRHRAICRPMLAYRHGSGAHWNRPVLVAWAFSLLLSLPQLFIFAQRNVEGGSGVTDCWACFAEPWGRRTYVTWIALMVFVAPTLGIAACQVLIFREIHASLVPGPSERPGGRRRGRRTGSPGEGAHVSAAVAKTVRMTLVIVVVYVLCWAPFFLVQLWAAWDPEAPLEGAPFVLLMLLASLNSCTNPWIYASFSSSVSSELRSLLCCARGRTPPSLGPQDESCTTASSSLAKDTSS

Consider `COc1cc(C(=O)N(C)c2ccc(C)cc2OCCCCCC(=O)N2CCN(C)CC2)ccc1NC(=O)c1cccc2[nH]c(CN)nc12` [Example 39-27, 4-(2-Aminomethyl-1H-benzimidazol-4-yl)carbonylamino-3-methoxy-N-methyl-N-[4-methyl-2-[5-(4-methylpiperazin-1-yl)carbonylpent-1-yloxy]phenyl]benzamidetrihydrochloride], for which the results for the 50% inhibitory concentration (IC50) (on human V2 receptor; in assay [1]) were 460 nM and 1.5 nM, respectively. For `COc1cc(C(=O)N(C)c2ccc(C)cc2OCCCCCC(=O)N2CCN(C)CC2)ccc1NC(=O)c1cccc2[nH]c(CO)nc12` [Example 39-35, 4-(2-Hydroxymethyl-1H-benzimidazol-4-yl)carbonylamino-3-methoxy-N-methyl-N-[4-methyl-2-[5-(4-methylpiperazin-1-yl)carbonylpent-1-yloxy]phenyl]benzamide dihydrochloride] the same measures were 380 nM and under 1 nM.

Compound `COc1cc(C(=O)N(C)c2ccc(C)cc2OCCCCCC(=O)N2CCN(C)CC2)ccc1C(=O)Nc1cccc2[nH]c(C)nc12` [Example 115-71, 3-Methoxy-N-methyl-4-[2-mehtyl-1H-benzimidazol-4-yl]carbamoyl-N-[4-methyl-2-[5-(4-methylpiperazin-1-yl)-carbonylpent-1-yloxy]phenyl]benzamide dihydrochloride] returned a half-inhibitory concentration (IC50) in assay [1] of 0.7 nM. Regarding `COc1cc(C(=O)N(C)c2ccc(C)cc2OCCCCCC(=O)N2CCN(C)CC2)ccc1C(=O)Nc1cccc2[nH]c(CN3CCN(C)CC3)nc12` [Example 115-81, 3-Methoxy-N-methyl-N-[4-methyl-2-[5-(4-methylpiperazin-1-yl)carbonylpent-1-yloxy]phenyl]-4-[2-[(4-methyl-piperazin-1-yl)methyl]-1H-benzimidazol-4-yl]-carbamoylbenzamide trihydrochloride], in assay [1], the IC50 is 4.5 nM.

One may read the IC50 as the concentration that inhibits the measured activity by half.
